Measurements taken from patent US6914045B2, “Glycopeptide antibiotics” (Wyeth Holdings Corporation, priority 2001, dated 2005).
Values after ≈ are worked out from the molar mass of the structure shown.

Experiments:
Assay in all cases: in vitro antibacterial evaluation, MIC by broth dilution
Format in all cases: cell-based
Escherichia coli = conditions: 18 hours at 35° C.
Enterococcus sp. = conditions: broth dilution, 18 hours at 35° C.
Summary of the method: (§1)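 MIC = lowest antibiotic concentration preventing visible growth; inoculum 5×10^5 CFU/mL; drug range 64-0.06 μg/mL; Muller-Hinton II […]; NCCLS M7-A2 guidance.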

Staphylococcus sp. = tested on: Staphylococcus sp.
Summary of the method: as §1

Streptococcus sp. = conditions: broth dilution, 18 hours at 35° C.
Summary of the method: as §1

[1] = broth dilution, 18 hours at 35° C.
[2] = strain ATCC 29213; broth dilution, 18 hours at 35° C.
[3] = strain GC 1131; broth dilution, 18 hours at 35° C.
[4] = strain GC 3051; broth dilution, 18 hours at 35° C.
[5] = strain GC 3053; broth dilution, 18 hours at 35° C.
[6] = strain GC 4541; broth dilution, 18 hours at 35° C.
[7] = strain GC 4542; broth dilution, 18 hours at 35° C.
[8] = strain GC 4544; broth dilution, 18 hours at 35° C.
[9] = strain GC 4545; broth dilution, 18 hours at 35° C.

## CC(c1ccccc1)C1NC(=O)CNC(=O)C(CO)NC(=O)C(C(O)C2CN(c3nc4ccccc4o3)C(=N)N2C2OC(CO)C(O)C(O)C2O)NC(=O)C(C(O)C2CNC(=Nc3nc4ccccc4o3)N2)NC(=O)C(Cc2ccc(OC3OC(CO)C(OC4OC5COC6(OC5C(O)C4O)C4CC5CC(C4)CC6C5)C(O)C3O)cc2)NC1=O (centres unmarked) [Example 227]
Escherichia coli
  MIC Escherichia coli (ATCC 25922): >128 µg/mL
  MIC Escherichia coli (GC 4559): >128 µg/mL
  MIC Escherichia coli (GC 4560): 8 µg/mL (≈ 4.81 µM)
Enterococcus sp.
  MIC Enterococcus avium (GC 4558): 8 µg/mL (≈ 4.81 µM)
  MIC Enterococcus faecalis (ATCC 29212): 64 µg/mL (≈ 38.5 µM)
  MIC Enterococcus faecalis (GC 2242): 64 µg/mL (≈ 38.5 µM)
  MIC Enterococcus faecalis (GC 2691): 64 µg/mL (≈ 38.5 µM)
  MIC Enterococcus faecalis (GC 3059): 128 µg/mL (≈ 77 µM)
  MIC Enterococcus faecalis (GC 4552): 64 µg/mL (≈ 38.5 µM)
  MIC Enterococcus faecalis (GC 4553): 8 µg/mL (≈ 4.81 µM)
  MIC Enterococcus faecalis (GC 4554): 128 µg/mL (≈ 77 µM)
  MIC Enterococcus faecalis (GC 6189): 64 µg/mL (≈ 38.5 µM)
  MIC Enterococcus faecium (GC 2243): 32 µg/mL (≈ 19.3 µM)
  MIC Enterococcus faecium (GC 4556): 64 µg/mL (≈ 38.5 µM)
  MIC Enterococcus faecium (GC 4557): 8 µg/mL (≈ 4.81 µM)
Enterococcus sp.; inoculum 5×10^5 CFU/mL, strain ATCC 29212
  MIC Enterococcus faecalis (ATCC 29212): 64 µg/mL (≈ 38.5 µM)
Enterococcus sp.; inoculum 5×10^5 CFU/mL, strain GC 2242
  MIC Enterococcus faecalis (GC 2242): 64 µg/mL (≈ 38.5 µM)
Enterococcus sp.; inoculum 5×10^5 CFU/mL, strain GC 2243
  MIC Enterococcus faecium (GC 2243): 32 µg/mL (≈ 19.3 µM)
Enterococcus sp.; inoculum 5×10^5 CFU/mL, strain GC 2691
  MIC Enterococcus faecalis (GC 2691): 64 µg/mL (≈ 38.5 µM)
Enterococcus sp.; inoculum 5×10^5 CFU/mL, strain GC 3059
  MIC Enterococcus faecalis (GC 3059): 128 µg/mL (≈ 77 µM)
Enterococcus sp.; inoculum 5×10^5 CFU/mL, strain GC 4552
  MIC Enterococcus faecalis (GC 4552): 64 µg/mL (≈ 38.5 µM)
Enterococcus sp.; inoculum 5×10^5 CFU/mL, strain GC 4553
  MIC Enterococcus faecalis (GC 4553): 8 µg/mL (≈ 4.81 µM)
Enterococcus sp.; inoculum 5×10^5 CFU/mL, strain GC 4554
  MIC Enterococcus faecalis (GC 4554): 128 µg/mL (≈ 77 µM)
Enterococcus sp.; inoculum 5×10^5 CFU/mL, strain GC 4556
  MIC Enterococcus faecium (GC 4556): 64 µg/mL (≈ 38.5 µM)
Enterococcus sp.; inoculum 5×10^5 CFU/mL, strain GC 4557
  MIC Enterococcus faecium (GC 4557): 8 µg/mL (≈ 4.81 µM)
Enterococcus sp.; inoculum 5×10^5 CFU/mL, strain GC 4558
  MIC Enterococcus avium (GC 4558): 8 µg/mL (≈ 4.81 µM)
Enterococcus sp.; inoculum 5×10^5 CFU/mL, strain GC 6189
  MIC Enterococcus faecalis (GC 6189): 64 µg/mL (≈ 38.5 µM)
Staphylococcus sp.; [1]
  MIC Coagulase Negative Staphylococcus (GC 4547): 32 µg/mL (≈ 19.3 µM)
  MIC Coagulase Negative Staphylococcus (GC 4548): 4 µg/mL (≈ 2.41 µM)
  MIC Coagulase Negative Staphylococcus (GC 4549): 32 µg/mL (≈ 19.3 µM)
  MIC Coagulase Negative Staphylococcus (GC 4551): 8 µg/mL (≈ 4.81 µM)
  MIC Staphylococcus aureus-SMITH (GC 4543): 128 µg/mL (≈ 77 µM)
  MIC Staphylococcus haemolyticus (GC 4546): 64 µg/mL (≈ 38.5 µM)
Staphylococcus sp.; broth dilution, 18 hours at 35° C.; strain GC 4543
  MIC Staphylococcus aureus-SMITH (GC 4543): 128 µg/mL (≈ 77 µM)
Staphylococcus sp.; broth dilution, 18 hours at 35° C.; strain GC 4546
  MIC Staphylococcus haemolyticus (GC 4546): 64 µg/mL (≈ 38.5 µM)
Staphylococcus sp.; broth dilution, 18 hours at 35° C.; strain GC 4547
  MIC Coagulase Negative Staphylococcus (GC 4547): 32 µg/mL (≈ 19.3 µM)
Staphylococcus sp.; broth dilution, 18 hours at 35° C.; strain GC 4548
  MIC Coagulase Negative Staphylococcus (GC 4548): 4 µg/mL (≈ 2.41 µM)
Staphylococcus sp.; broth dilution, 18 hours at 35° C.; strain GC 4549
  MIC Coagulase Negative Staphylococcus (GC 4549): 32 µg/mL (≈ 19.3 µM)
Staphylococcus sp.; broth dilution, 18 hours at 35° C.; strain GC 4551
  MIC Coagulase Negative Staphylococcus (GC 4551): 8 µg/mL (≈ 4.81 µM)
Staphylococcus sp.; [2]
  MIC Staphylococcus aureus (ATCC 29213): 128 µg/mL (≈ 77 µM)
Staphylococcus sp.; [3]
  MIC Staphylococcus aureus (GC 1131): 128 µg/mL (≈ 77 µM)
Staphylococcus sp.; [4]
  MIC Staphylococcus aureus (GC 3051): 128 µg/mL (≈ 77 µM)
Staphylococcus sp.; [5]
  MIC Staphylococcus aureus (GC 3053): >128 µg/mL
Staphylococcus sp.; [6]
  MIC Staphylococcus aureus (GC 4541): 128 µg/mL (≈ 77 µM)
Staphylococcus sp.; [7]
  MIC Staphylococcus aureus (GC 4542): 128 µg/mL (≈ 77 µM)
Staphylococcus sp.; [8]
  MIC Staphylococcus aureus (GC 4544): 128 µg/mL (≈ 77 µM)
Staphylococcus sp.; [9]
  MIC Staphylococcus aureus (GC 4545): 128 µg/mL (≈ 77 µM)
Streptococcus sp.
  MIC Streptococcus agalactiae (GC 4564): 4 µg/mL (≈ 2.41 µM)
  MIC Streptococcus pneumoniae (ATCC 6301): 32 µg/mL (≈ 19.3 µM)
  MIC Streptococcus pneumoniae (GC 1894): 32 µg/mL (≈ 19.3 µM)
  MIC Streptococcus pneumoniae (GC 4565): 64 µg/mL (≈ 38.5 µM)
  MIC Streptococcus pyogenes (GC 4563): 32 µg/mL (≈ 19.3 µM)
Streptococcus sp.; inoculum 5×10^5 CFU/mL, strain ATCC 6301
  MIC Streptococcus pneumoniae (ATCC 6301): 32 µg/mL (≈ 19.3 µM)
Streptococcus sp.; inoculum 5×10^5 CFU/mL, strain GC 1894
  MIC Streptococcus pneumoniae (GC 1894): 32 µg/mL (≈ 19.3 µM)
Streptococcus sp.; inoculum 5×10^5 CFU/mL, strain GC 4563
  MIC Streptococcus pyogenes (GC 4563): 32 µg/mL (≈ 19.3 µM)
Streptococcus sp.; inoculum 5×10^5 CFU/mL, strain GC 4564
  MIC Streptococcus agalactiae (GC 4564): 64 µg/mL (≈ 38.5 µM)
Streptococcus sp.; inoculum 5×10^5 CFU/mL, strain GC 4565
  MIC Streptococcus pneumoniae (GC 4565): 64 µg/mL (≈ 38.5 µM)

## CC(c1ccccc1)C1NC(=O)CNC(=O)C(CO)NC(=O)C(C(O)C2CNC(=N)N2C2OC(CO)C(O)C(O)C2O)NC(=O)C(C(O)C2CNC(=N)N2)NC(=O)C(Cc2ccc3oc(-c4ccc(N(C)C)cc4)nc3c2)NC1=O (stereo not drawn) [Example 29, Cyclo[3-[2-[4-(dimethylamino)phenyl]-1,3-benzoxazol-5-yl]alanyl-3-(2-iminoimidazolidin-4-yl)-seryl-3-(3-hexopyranosyl-2-iminoimidazolidin-4-yl)serylserylglycyl-β-methylphenyl-alanyl]]
Escherichia coli; strain ATCC 25922, broth dilution
  MIC Escherichia coli (ATCC 25922): 16 µg/mL (≈ 14.3 µM)
Escherichia coli; strain GC 4559, broth dilution
  MIC Escherichia coli (GC 4559): 16 µg/mL (≈ 14.3 µM)
Escherichia coli; strain GC 4560, broth dilution
  MIC Escherichia coli (GC 4560): 4 µg/mL (≈ 3.59 µM)
Enterococcus sp.; strain ATCC 29212
  MIC Enterococcus faecalis (ATCC 29212): 32 µg/mL (≈ 28.7 µM)
Enterococcus sp.; strain GC 2242
  MIC Enterococcus faecalis (GC 2242): 32 µg/mL (≈ 28.7 µM)
Enterococcus sp.; strain GC 2243
  MIC Enterococcus faecium (GC 2243): 16 µg/mL (≈ 14.3 µM)
Enterococcus sp.; strain GC 2691
  MIC Enterococcus faecalis (GC 2691): 32 µg/mL (≈ 28.7 µM)
Enterococcus sp.; strain GC 3059
  MIC Enterococcus faecalis (GC 3059): 64 µg/mL (≈ 57.4 µM)
Enterococcus sp.; strain GC 4552
  MIC Enterococcus faecalis (GC 4552): 64 µg/mL (≈ 57.4 µM)
Enterococcus sp.; strain GC 4553
  MIC Enterococcus faecalis (GC 4553): 16 µg/mL (≈ 14.3 µM)
Enterococcus sp.; strain GC 4554
  MIC Enterococcus faecalis (GC 4554): 32 µg/mL (≈ 28.7 µM)
Enterococcus sp.; strain GC 4556
  MIC Enterococcus faecium (GC 4556): 64 µg/mL (≈ 57.4 µM)
Enterococcus sp.; strain GC 4557
  MIC Enterococcus faecium (GC 4557): 8 µg/mL (≈ 7.17 µM)
Enterococcus sp.; strain GC 4558
  MIC Enterococcus avium (GC 4558): 16 µg/mL (≈ 14.3 µM)
Enterococcus sp.; strain GC 6189
  MIC Enterococcus faecalis (GC 6189): 32 µg/mL (≈ 28.7 µM)
Staphylococcus sp.; [2]
  MIC Staphylococcus aureus (ATCC 29213): 8 µg/mL (≈ 7.17 µM)
Staphylococcus sp.; [3]
  MIC Staphylococcus aureus (GC 1131): 8 µg/mL (≈ 7.17 µM)
Staphylococcus sp.; [4]
  MIC Staphylococcus aureus (GC 3051): 8 µg/mL (≈ 7.17 µM)
Staphylococcus sp.; [5]
  MIC Staphylococcus aureus (GC 3053): 8 µg/mL (≈ 7.17 µM)
Staphylococcus sp.; [6]
  MIC Staphylococcus aureus (GC 4541): 8 µg/mL (≈ 7.17 µM)
Staphylococcus sp.; [7]
  MIC Staphylococcus aureus (GC 4542): 8 µg/mL (≈ 7.17 µM)
Staphylococcus sp.; strain GC 4543; broth dilution, 18 hours at 35° C.
  MIC Staphylococcus aureus-SMITH (GC 4543): 8 µg/mL (≈ 7.17 µM)
Staphylococcus sp.; [8]
  MIC Staphylococcus aureus (GC 4544): 8 µg/mL (≈ 7.17 µM)
Staphylococcus sp.; [9]
  MIC Staphylococcus aureus (GC 4545): 8 µg/mL (≈ 7.17 µM)
Staphylococcus sp.; strain GC 4546; broth dilution, 18 hours at 35° C.
  MIC Staphylococcus haemolyticus (GC 4546): 4 µg/mL (≈ 3.59 µM)
Staphylococcus sp.; strain GC 4547; broth dilution, 18 hours at 35° C.
  MIC Coagulase Negative Staphylococcus (GC 4547): 4 µg/mL (≈ 3.59 µM)
Staphylococcus sp.; strain GC 4548; broth dilution, 18 hours at 35° C.
  MIC Coagulase Negative Staphylococcus (GC 4548): 4 µg/mL (≈ 3.59 µM)
Staphylococcus sp.; strain GC 4549; broth dilution, 18 hours at 35° C.
  MIC Coagulase Negative Staphylococcus (GC 4549): 2 µg/mL (≈ 1.79 µM)
Staphylococcus sp.; strain GC 4551; broth dilution, 18 hours at 35° C.
  MIC Coagulase Negative Staphylococcus (GC 4551): 8 µg/mL (≈ 7.17 µM)
Staphylococcus sp.; strain GC 6257; broth dilution, 18 hours at 35° C.
  MIC Coagulase Negative Staphylococcus (GC 6257): 4 µg/mL (≈ 3.59 µM)
Streptococcus sp.; strain ATCC 6301
  MIC Streptococcus pneumoniae (ATCC 6301): 32 µg/mL (≈ 28.7 µM)
Streptococcus sp.; strain GC 1894
  MIC Streptococcus pneumoniae (GC 1894): 32 µg/mL (≈ 28.7 µM)
Streptococcus sp.; strain GC 4563
  MIC Streptococcus pyogenes (GC 4563): 16 µg/mL (≈ 14.3 µM)
Streptococcus sp.; strain GC 4564
  MIC Streptococcus agalactiae (GC 4564): 32 µg/mL (≈ 28.7 µM)
Streptococcus sp.; strain GC 4565
  MIC Streptococcus pneumoniae (GC 4565): 32 µg/mL (≈ 28.7 µM)
